Data on seven molecules can be found in patent US20100098631A1, “Novel-2-Heteroaryl Substituted Indoles 695” (ASTRAZENECA AB, priority 2007, published 2010).

pIC50: −log10 of the molar value.

For this experiment, the target named is T1, synthetic Aβ 1-40 (Homo sapiens, UniProt P05067).
T1 construct: using synthetic Aβ 1-40 in 2.7 nM of [^3H]PIB
T1 sequence (P05067 672-711 limits assumed): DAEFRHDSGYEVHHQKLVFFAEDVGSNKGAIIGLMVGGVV
The experiment in a line: Competition binding assay ([3H]PIB as radioligand). The settings on record: [3H]PIB 2.7 nM as radioligand, synthetic Aβ 1-40, phosphate buffer pH 7.5, 30 min room temperature; read-out: IC50 in the competion binding assay. As to the method: Competition binding was performed in 384-well FB filter plates using synthetic Aβ 1-40 in 2.7 nM of [^3H]PIB (or another ^3H-labeled radioligand when so mentioned) in phosphate buffer at pH 7.5, by adding various concentrations of non-radioactive compounds originally dissolved in DMSO. The binding mixture was incubated for 30 min at room temperature, followed by vacuum filtration, and subsequently by washing twice with 1% Triton-X100. Scintillation fluid was thereafter added to the collected Aβ 1-40 on the filter plate, and the activity of the bound remaining radioligand ([^3H]PIB or another ^3H-labeled radioligand) was measured using 1450 Microbeta from PerkinElmer. Specific binding was determined according to the competion binding assay described herein. The determined IC50's in the competion binding assays (using [^3H]PIB as radioligand) of compounds of the present invention are shown in Table 1.
Consider `CC(C)(C)OC(=O)n1c(-c2ccc(C(N)=O)nc2)cc2cc(F)ccc21` [tert-Butyl 2-(6-carbamoylpyridin-3-yl)-5-fluoro-1H-indole-1-carboxylate], for which the pIC50 (in general, −log10 of the IC50, conventionally taken in molar units) is 5.27.
As for `CNc1ccc(-c2cc3cc(O)ccc3[nH]2)cn1` [2-[6-(Methylamino)pyridin-3-yl]-1H-indol-5-ol], the pIC50 is 6.13.
Regarding `CNc1ccc(-c2cc3cc(OC)ccc3[nH]2)cn1` [5-(5-Methoxy-1H-indol-2-yl)—N-methylpyridin-2-amine], the pIC50 was 6.70.
Take `COC(=O)c1ccc(-c2cc3cc(O)ccc3[nH]2)nc1` [6-(5-Hydroxy-1H-indol-2-yl)-Nicotinic Acid Methyl Ester]: the pIC50 is 6.85.
For `CNc1ccc(-c2cc3cc(F)ccc3[nH]2)cn1` [5-(5-Fluoro-1H-indol-2-yl)—N-methylpyridin-2-amine], the negative logarithm of the IC50 (pIC50) is 6.82.
As to `COC(=O)c1ccc(-c2cc3cc(OC)ccc3[nH]2)nc1` [Methyl 6-(5-methoxy-1H-indol-2-yl)-nicotinate], the pIC50 is 6.85.
Next, `NC(=O)c1ccc(-c2cc3ccccc3[nH]2)cn1` [5-(1H-indol-2-yl)pyridine-2-carboxamide, 5-(1H-Indol-2-yl)pyridine-2-carboxamide]: 6.84.
